Data from patent US7388095B2, “5-substituted indole-2-carboxamide derivatives” (Hoffmann-La Roche Inc., priority 2005, dated 2008).
pKi: −log10 of the molar value.

Biological target: T1, histamine 3 receptor (H3R) (Homo sapiens, UniProt Q9Y5N1)
T1 construct: expressed in transfected cells; host or cells: CHO cells (HR3-CHO cell line), membrane preparation
Experiment: Competition binding assay with 3H-(R)α-methylhistamine on membranes of the human HR3-CHO cell line
Settings: 3H(R)α-methylhistamine 1 nM, Ki calculated from IC50 by Cheng-Prusoff equation
Experimental: Binding assay with ^3H-(R)α-methylhistamine
Saturation binding experiments were performed using HR3-CHO membranes prepared as described in Takahashi, K, Tokita, S., Kotani, H. (2003) J. Pharmacol. Exp. Therapeutics 307, 213-218.
An appropriate amount of membrane (60 to 80 μg protein/well) was incubated with increasing concentrations of ^3H(R)α-Methylhistamine di-hydrochloride (0.10 to 10 nM). Non-specific binding was determined using a […] excess of cold (R)α-methylhistamine dihydrobromide (500 nM final concentration). The incubation was carried out at room temperature (in deep-well plates shaking for three hours). The final volume in each well was 250 μl. The incubation was followed by rapid filtration on GF/B filters (pre-soaked with 100 μl of 0.5% PEI in Tris 50 mM shaking at 200 rpm for two hours). The filtration was made using a cell-harvester and the filter plates were then washed five times with ice cold washing buffer containing 0.5 M NaCl. After harvesting, the plates were dried at 55° C. for 60 min, then scintillation fluid (Microscint 40, 40 microl in each well) was added and the amount of radioactivity on the filter was determined with a Packard top-counter after shaking the plates for two hours at 200 rpm at room temperature.
Binding Buffer: 50 mM Tris-HCl pH 7.4 and 5 mM MgCl2x6H2O pH 7.4. Washing Buffer: 50 mM Tris-HCl pH 7.4 and 5 mM MgCl2x6H2O and 0.5 M NaCl pH 7.4.
Indirect measurement of affinity of H3R inverse agonists: twelve increasing concentrations (ranging from 10 μM to 0.3 nM) of the selected compounds were always tested in competition binding experiments using membrane of the human HR3-CHO cell line. An appropriate amount of protein, e.g. approximately 500 cpm binding of RAMH at Kd, were incubated for 1 hour at room temperature in 250 μl final volume in 96-well plates in presence of ^3H(R)α-methylhistamine (1 nM final concentration=Kd). […]
All compounds were tested at a single concentration in duplicates. […] Ki's were calculated from IC50 based on Cheng-Prusoff equation (Cheng, Y, Prusoff, W H (1973) Biochem Pharmacol 22, 3099-3108).

T1 sequence (Q9Y5N1 whole entry): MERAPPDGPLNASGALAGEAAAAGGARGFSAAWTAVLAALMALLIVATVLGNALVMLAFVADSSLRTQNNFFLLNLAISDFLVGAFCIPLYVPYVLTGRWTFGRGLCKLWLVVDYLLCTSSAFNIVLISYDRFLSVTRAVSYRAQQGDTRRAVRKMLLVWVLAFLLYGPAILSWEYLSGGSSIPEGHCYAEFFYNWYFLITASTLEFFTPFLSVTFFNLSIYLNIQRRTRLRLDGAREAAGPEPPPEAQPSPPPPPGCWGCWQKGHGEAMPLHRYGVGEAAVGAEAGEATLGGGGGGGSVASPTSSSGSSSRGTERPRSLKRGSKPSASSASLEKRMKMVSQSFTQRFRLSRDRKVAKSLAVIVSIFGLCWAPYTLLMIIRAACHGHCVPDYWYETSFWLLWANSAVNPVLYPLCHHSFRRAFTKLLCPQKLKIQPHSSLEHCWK

SMILES	pKi
CC(C)N1CCOC(COc2ccc3c(c2)cc(C(=O)N2CCOCC2)n3CC(F)(F)F)C1 (stereo not drawn) [Example 1, [5-(4-Isoopropyl-morpholin-2-ylmethoxy)-1-(2,2,2-trifluoro-ethyl)-1H-indol-2-yl]-morpholin-4-yl-methanone]	7.52
O=C(c1cc2cc(OCCCN3CC4CC4C3)ccc2[nH]1)N1CCOCC1 (stereo not drawn) [Example 5, {5-[3-(3-Aza-bicyclo[3.1.0]hex-3-yl)-propoxy]-1H-indol-2-yl}-morpholin-4-yl-methanone]	7.40
O=C(c1cc2cc(OCCCN3CC4CC4C3)ccc2n1CC(F)(F)F)N1CCOCC1 (stereo not drawn) [Example 6, [5-[3-(3-Aza-bicyclo[3.1.0]hex-3-yl)-propoxy]-1-(2,2,2-trifluoro-ethyl)-1H-indol-2-yl]-morpholin-4-yl-methanone]	7.59
